Data on ten compounds can be found in ChEMBL document CHEMBL1201862, “PubChem BioAssay data set” (2004).

Holding throughout (experiment): NCI tumour cell line growth inhibition, 48 h
The subject of assay [1] is DU-145.
Assay [2] concerns T47D.
Assay [3] has as its system SNB-19.
Assay [4] relates to CAKI-1.
Assay [5] has as its system NCI-H522.
Assay [6] deals with SK-MEL-5.
For assay [7], the system named is HCC 2998.
Assay [8] has as its system OVCAR-8.
Assay [9] deals with SNB-75.
Assay [10] relates to OVCAR-5.
For assay [11], the system named is HCT-116.
In assay [12] the test system is A549.
For assay [13], the system named is UACC-62.
In assay [14] the test system is MCF7.
The subject of assay [15] is SW-620.
The test system of assay [16] is NCI-H23.
Assay [17] relates to BT-549.
Assay [18] relates to HCT-15.
Assay [19] relates to ACHN.
Assay [20] relates to NCI-H226.

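Cultured in 96-well plates, cells were exposed to test compound for 48 hours across five concentrations. GI50 marks 50% less growth.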 Calls of active or inactive are those of the source. Cut-off read from the data, not from the text of the source: active = GI50 up to about 1.1 µM and inactive = higher.

For the compound `O=C(CN1CCCC1)Nc1ccc2sc3ccccc3c(=O)c2n1`, the GI50 is 25.9 µM (inactive) in assay [1]; 30.1 µM (inactive) in [2]; 32.7 µM (inactive) in assay [3]; 18 µM (inactive) in [4]; 11.2 µM (inactive) in [5]; 16.5 µM (inactive) in assay [6]. Moreover, the GI50 was 13.9 µM (inactive) in assay [7]; 16.8 µM (inactive) in [8]; 19.7 µM (inactive) in assay [9]; 24.4 µM (inactive) in assay [10]; 13.9 µM (inactive) in assay [11]; 16.6 µM (inactive) in [12]. Also, the GI50 in assay [13] was 19.9 µM (inactive); in [14], 27.2 µM (inactive); in [15] it was 4.97 µM (inactive); in [16], 24.2 µM (inactive); in [17] it was 25.3 µM (inactive); in assay [18] it was 23.2 µM. In addition, the GI50 in assay [19] is 12.5 µM (inactive).
As for `CC(=O)NC1C(OCc2ccccc2)OC(CO)C(O)C1OCC(=O)NC(C)C(=O)NC(CCC(=O)NCCCCNc1ccc([N+](=O)[O-])c2[nH]c3ccccc3c(=O)c12)C(N)=O` (stereo unspecified), the GI50 is > 100 µM (inactive) in [1]; > 100 µM (inactive) in assay [2]; 36.7 µM (inactive) in [3]; > 100 µM (inactive) in assay [4]; > 100 µM (inactive) in assay [7]; > 100 µM (inactive) in assay [8]. In addition, the GI50 was 43.9 µM (inactive) in assay [9]; > 100 µM (inactive) in assay [10]; 63.7 µM (inactive) in assay [11]; 50.1 µM (inactive) in assay [12]; 66.1 µM (inactive) in assay [20]; > 100 µM (inactive) in [14]. The GI50 in [15] was > 100 µM (inactive); in assay [16], > 100 µM (inactive); in assay [17] it was 30.1 µM (inactive); in [18], 65 µM; in assay [19] it was 48.9 µM (inactive).
`CCN1C(=O)C(=C/C=C/c2ccc(N(CC)CC)cc2)C(=O)N(CC)C1=S`: the GI50 in [1], in assay [2], in assay [3], in assay [4], in assay [6] and in assay [7] was > 100 µM (inactive) each time. The GI50 was > 100 µM (inactive) in assay [8]; > 100 µM (inactive) in [10]; > 100 µM (inactive) in assay [11]; > 100 µM (inactive) in assay [12]; 93.3 µM (inactive) in [20]; 87.5 µM (inactive) in assay [13]. Also, the GI50 was > 100 µM (inactive) in assay [14]; > 100 µM (inactive) in assay [15]; > 100 µM (inactive) in [16]; 40.7 µM (inactive) in assay [17]; more than 100 µM in assay [18]; > 100 µM (inactive) in [19].
Turning to `COc1c(CC=C(C)C)c(O)c(C(CC(C)C)c2c(O)c(C(C)=O)c(O)c3c2OC(C(C)(C)O)C3)c(O)c1C(C)=O` (stereo unspecified) [ACROFOLIONE A], the GI50 in [1] is 4.71 µM (inactive); in assay [2], 3.21 µM (inactive); in assay [3] it was 7.33 µM (inactive); in assay [4], 3.59 µM (inactive); in assay [5] it was 3.39 µM (inactive); in assay [6], 3.41 µM (inactive). For the same compound, the GI50 in [7] was 4.46 µM (inactive); in [8], 4.12 µM (inactive); in assay [10], 5.38 µM (inactive); in assay [11] it was 3.68 µM (inactive); in assay [12], 7.96 µM (inactive); in [20] it was 5.69 µM (inactive). Further, the GI50 in [13] was 5.26 µM (inactive); in [14], 4.26 µM (inactive); in [15], 6.25 µM (inactive); in assay [16], 3.75 µM (inactive); in assay [17], 3.27 µM (inactive); in assay [18] it was 3.86 µM. Moreover, the GI50 in assay [19] is 4.31 µM (inactive).
As to `CC(=O)Nn1c(=S)[nH]c2ccccc21`, the GI50 in [1], in assay [2], in assay [3], in [4], in assay [5] and in assay [6] was > 100 µM (inactive) throughout. The GI50 in [7], in [8], in assay [10], in [11], in assay [12] and in assay [20] was > 100 µM (inactive) each time. For the same compound, the GI50 in assay [13] is > 100 µM (inactive); in [14], > 100 µM (inactive); in [15], > 100 µM (inactive); in assay [16], > 100 µM (inactive); in assay [17] it was > 100 µM (inactive); in [18] it was more than 100 µM. Moreover, the GI50 in [19] is > 100 µM (inactive).
With `N#Cc1c(=O)c2ccccc2n2c1[nH]c1ccccc12`, the GI50 is 33.9 µM (inactive) in assay [1]; 22.7 µM (inactive) in assay [2]; 42.5 µM (inactive) in assay [3]; 35.2 µM (inactive) in [4]; 58.3 µM (inactive) in [7]; 27.6 µM (inactive) in assay [8]. For the same compound, the GI50 in [9] was 43.1 µM (inactive); in assay [10], > 100 µM (inactive); in assay [11], 30.5 µM (inactive); in assay [12], 58.1 µM (inactive); in assay [20], 34.9 µM (inactive); in assay [13], 29.4 µM (inactive). Besides, the GI50 in [14] was 56.2 µM (inactive); in [15], 48.5 µM (inactive); in assay [16], 55.2 µM (inactive); in assay [17], 58.3 µM (inactive); in assay [18], 17.6 µM; in assay [19], 58.6 µM (inactive).
For the compound `Cn1cc(NC(=O)Nc2cc(C(=O)Nc3cc(C(=O)Nc4ccc(S(=O)(=O)O)c5cc(S(=O)(=O)O)ccc45)n(C)c3)n(C)c2)cc1C(=O)Nc1cc(C(=O)Nc2ccc(S(=O)(=O)O)c3cc(S(=O)(=O)O)ccc23)n(C)c1`, the GI50 in assay [1], in [2], in assay [3], in [5], in [6] and in assay [7] was > 100 µM (inactive) in each case. In addition, the GI50 in assay [8] was > 100 µM (inactive); in assay [9], > 100 µM (inactive); in assay [10], > 100 µM (inactive); in assay [11] it was > 100 µM (inactive); in [12] it was 85.7 µM (inactive); in [20], > 100 µM (inactive). Further, the GI50 in [13] was > 100 µM (inactive); in assay [14] it was > 100 µM (inactive); in assay [15], > 100 µM (inactive); in assay [16], > 100 µM (inactive); in assay [17], > 100 µM (inactive); in assay [18] it was more than 100 µM. In addition, in [19], the GI50 was > 100 µM (inactive).
As to `O=c1c(-c2ccccc2)c(SCCN2CCCC2)n(-c2ccccc2)c(=S)n1-c1ccccc1`, the GI50 in assay [1], in assay [2], in assay [3], in assay [4], in [5] and in assay [7] was > 100 µM (inactive) each time. In addition, the GI50 is > 100 µM (inactive) in assay [8]; 34.4 µM (inactive) in [9]; > 100 µM (inactive) in assay [10]; > 100 µM (inactive) in assay [11]; > 100 µM (inactive) in assay [12]; 83.2 µM (inactive) in assay [20]. Further, the GI50 in assay [13] is > 100 µM (inactive); in assay [14], > 100 µM (inactive); in assay [15], > 100 µM (inactive); in assay [16] it was > 100 µM (inactive); in assay [17], > 100 µM (inactive); in [18] it was more than 100 µM. The GI50 in assay [19] is > 100 µM (inactive).
On to `CCCCNC(=O)c1cc2c(cc1Cl)Sc1nccn1S2(=O)=O`, for which the GI50 in assay [1] is > 100 µM (inactive); in [2] it was 64 µM (inactive); in assay [3], > 100 µM (inactive); in assay [4], 18.7 µM (inactive); in assay [5] it was 51.8 µM (inactive); in assay [6], 0.0116 µM (active). Moreover, the GI50 was > 100 µM (inactive) in [7]; > 100 µM (inactive) in [8]; 17.5 µM (inactive) in [9]; > 100 µM (inactive) in [10]; 31 µM (inactive) in assay [11]; > 100 µM (inactive) in assay [12]. In addition, the GI50 in assay [13] was 86.5 µM (inactive); in assay [14] it was 66.4 µM (inactive); in assay [15], > 100 µM (inactive); in assay [16], > 100 µM (inactive); in [17], 78 µM (inactive); in assay [18] it was 92.9 µM. In addition, the GI50 in assay [19] was 82 µM (inactive).
Turning to `CN(Cc1cnc2nc(N)nc(N)c2n1)c1ccc(C(=O)NCS(=O)(=O)O)cc1`, the GI50 in [1] was 25.7 µM (inactive); in assay [2] it was > 100 µM (inactive); in assay [3] it was > 100 µM (inactive); in assay [5], > 100 µM (inactive); in assay [6], > 100 µM (inactive); in assay [7], > 100 µM (inactive). In addition, the GI50 in [8] is > 100 µM (inactive); in assay [9], 29.4 µM (inactive); in [10], > 100 µM (inactive); in [11], 43.3 µM (inactive); in assay [12], 95.7 µM (inactive); in assay [20], > 100 µM (inactive). Moreover, the GI50 in [13] is > 100 µM (inactive); in assay [14] it was 57.9 µM (inactive); in assay [15], 78.5 µM (inactive); in [16] it was > 100 µM (inactive); in assay [17], > 100 µM (inactive); in assay [18] it was more than 100 µM. In addition, the GI50 in assay [19] was 64.9 µM (inactive).
